Each structure is given as a SMILES string.

Assay [1] addresses T1, Histone deacetylase 1 (Homo sapiens, UniProt Q13547). Put plainly: In vitro inhibition of partially purified recombinant human Histone deacetylase 1.
The test system of the next assay is HCT-116. Put plainly: In vitro antiproliferative activity against human colon cancer HCT 116 cells determined by […] assay. Format: functional, cell-based.
The target of assay [2] is T1, Histone deacetylase 1. Put plainly: Concentration of compound required for acetylation of histone-4 in human T24 cancer cells. Format: functional, cell-based, Cancer cell lines.
The test system of assay [3] is Mus musculus. Put plainly: In vivo inhibition of non small cell lung carcinoma A549 tumor in nude mice administered with a daily dose of 50 mg/kg for 21 days. Format: functional. The conditions noted are these: A549, 504 h.
In assay [4] the test system is Mus musculus. Put plainly: In vivo inhibition of non small cell lung carcinoma A549 tumor in nude mice administered with a daily dose of 20 mg/kg for 21 days. Format: functional. The conditions noted are these: A549, 504 h.
Assay [5] relates to Mus musculus. Briefly: In vivo inhibition of non small cell lung carcinoma A549 tumor in nude mice administered with a daily dose of 40 mg/kg for 21 days. The conditions noted are these: A549, 504 h. Type of assay: functional.

T1 sequence (Q13547 whole entry): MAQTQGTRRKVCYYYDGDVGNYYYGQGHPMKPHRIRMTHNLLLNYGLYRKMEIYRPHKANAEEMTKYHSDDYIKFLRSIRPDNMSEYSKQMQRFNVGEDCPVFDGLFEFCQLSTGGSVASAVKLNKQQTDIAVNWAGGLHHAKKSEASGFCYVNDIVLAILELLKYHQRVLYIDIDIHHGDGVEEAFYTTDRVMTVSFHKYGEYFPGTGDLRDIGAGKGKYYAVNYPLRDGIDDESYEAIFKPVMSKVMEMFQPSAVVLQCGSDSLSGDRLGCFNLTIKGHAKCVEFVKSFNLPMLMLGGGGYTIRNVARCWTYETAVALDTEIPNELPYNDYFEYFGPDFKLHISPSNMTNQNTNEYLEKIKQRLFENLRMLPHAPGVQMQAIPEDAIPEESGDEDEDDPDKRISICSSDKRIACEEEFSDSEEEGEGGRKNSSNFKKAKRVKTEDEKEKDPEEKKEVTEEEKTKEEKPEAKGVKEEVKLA

One may read the IC50 as the point on the concentration scale where inhibition reaches its midpoint. Broadly, the EC50 is the concentration giving half of the maximal effect. Low values mean greater potency, high ones weaker potency. Take `O=C(/C=C/c1ccc(NS(=O)(=O)c2ccc(Cl)c(Cl)c2)cc1)NO`: the concentration for half-maximal inhibition (IC50) at Histone deacetylase 1 [1] is 100 nM. Further, the concentration giving a half-maximal response (EC50) with HCT-116 stood at 2000 nM; at Histone deacetylase 1 [2] it was 5 µM.

As to `O=C(/C=C/c1ccc(NS(=O)(=O)c2ccc(Cl)cc2Cl)cc1)NO`, the half-maximal effective concentration (EC50) in the assay on HCT-116 was 4000 nM; at Histone deacetylase 1 [2], above 25 µM.

As a reminder, the inhibition in vivo is the share of the control response that was lost under treatment. As for `COc1ccc(S(=O)(=O)Nc2ccc(/C=C/C(=O)NO)cc2)cc1OC`, the inhibition in vivo at 50 mg/kg with Mus musculus [3] worked out at 57%. In the assay on Mus musculus [4], this molecule came in with an inhibition in vivo at 20 mg/kg of 41%. Besides, in the assay with Mus musculus [5], at 40 mg/kg the inhibition in vivo was 50%. The half-maximal effective concentration (EC50) with HCT-116 amounted to 200 nM; at Histone deacetylase 1 [2] it was 1 µM.

`CC(/C=C/C(=O)NO)=C\[C@@H](C)C(=O)c1ccc(N(C)C)cc1` [TRICHOSTATIN]: in the assay on HCT-116, the EC50 came out at 1000 nM.

On to `CC(C)C(Cc1ccc(NS(=O)(=O)c2ccccc2)cc1)C(=O)NO` (stereo unspecified), for which the IC50 at Histone deacetylase 1 [1] was above 25000 nM. Also, the EC50 with HCT-116 is 30000 nM; on Histone deacetylase 1 [2], above 25 µM.

As to `O=C(/C=C/c1ccc(NS(=O)(=O)c2ccccc2)cc1)NO`, the concentration for a half-maximal effect (EC50) in the assay with HCT-116 was found to be 3000 nM.

In the case of `O=C(Cc1ccc(NS(=O)(=O)c2ccccc2)cc1)NO`, the IC50 at Histone deacetylase 1 [1] was determined as 1000 nM. In addition, the values for the EC50 in the assay on HCT-116 and at Histone deacetylase 1 [2] were 22000 nM and above 25 µM, respectively.

`COc1ccc(S(=O)(=O)Nc2ccc(/C=C/C(=O)NO)cc2)cc1`: the IC50 on Histone deacetylase 1 [1] was determined as 60 nM. In addition, the 50% effective concentration (EC50) worked out at 400 nM in the assay with HCT-116 and 5 µM at Histone deacetylase 1 [2].

Take `O=C(/C=C/c1ccc(NS(=O)(=O)c2ccc(Cl)cc2)cc1)NO`: the EC50 in the assay on HCT-116 stood at 1000 nM.

Take `O=C(CCc1ccc(NS(=O)(=O)c2ccccc2)cc1)NO`: the figures for the EC50 in the assay with HCT-116 and at Histone deacetylase 1 [2] were 2000 nM and 5 µM, respectively.

Turning to `Cc1ccc(S(=O)(=O)Nc2ccc(/C=C/C(=O)NO)cc2)cc1`, the 50% effective concentration (EC50) in the assay with HCT-116 came out at 700 nM; at Histone deacetylase 1 [2], 10 µM.

For the origin of these results see ChEMBL document CHEMBL1133829, “Design and synthesis of a novel class of histone deacetylase inhibitors” (Bioorg Med Chem Lett, 2001).
